Assay [1] addresses M. tuberculosis Lumazine Synthase (Mycobacterium tuberculosis, UniProt P9WHE9). Format: biochemical. Particulars: recombinant M. tuberculosis LS; for kcat (rate constant ES → E + P): fit of the compound's data set; for kcat (rate constant ES → E + P) / Kis (inhibitor dissociation constant, ES + I ⇌ ESI): pH 7.0; for Kis (inhibitor dissociation constant, ES + I ⇌ ESI): substrate 1 varied, 2 constant.

The target of assay [2] is T1, S. pombe Lumazine Synthase (Schizosaccharomyces pombe, UniProt Q9UUB1).
T1 sequence (Q9UUB1 1-159): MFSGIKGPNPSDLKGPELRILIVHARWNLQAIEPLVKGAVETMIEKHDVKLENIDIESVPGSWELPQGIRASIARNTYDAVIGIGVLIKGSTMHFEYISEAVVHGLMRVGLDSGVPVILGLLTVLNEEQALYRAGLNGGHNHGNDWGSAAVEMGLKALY
In words: Lumazine synthase kinetic inhibition assay. Format: biochemical. Particulars: recombinant S. pombe LS; for kcat (rate constant ES → E + P): fit of the compound's data set; for kcat (rate constant ES → E + P) / Kis (inhibitor dissociation constant, ES + I ⇌ ESI): pH 7.0; for Kis (inhibitor dissociation constant, ES + I ⇌ ESI): substrate 1 varied, 2 constant.

M. tuberculosis Lumazine Synthase, sequence (P9WHE9 whole entry): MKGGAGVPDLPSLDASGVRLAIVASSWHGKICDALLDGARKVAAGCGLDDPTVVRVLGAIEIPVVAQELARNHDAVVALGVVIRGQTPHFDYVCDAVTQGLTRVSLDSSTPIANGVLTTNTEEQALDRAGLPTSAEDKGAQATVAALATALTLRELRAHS

Turning to `O=c1[nH]c(/C=C/c2ccccc2F)c([N+](=O)[O-])c(=O)[nH]1` [Compound 28, (E)-6-(2-Fluorostyryl)-5-nitropyrimidine-2,4(1H,3H)-dione], in assay [1], the Mode of inhibition entry is “Mixed”; the “kcat (rate constant ES → E + P)” value was determined as 0.0045 ± 0.00017 s⁻¹; the “Kis (inhibitor dissociation constant, ES + I ⇌ ESI)” value was 13 ± 3 µM.

Consider `O=c1[nH]c(/C=C/c2ccc(O)c([N+](=O)[O-])c2)c([N+](=O)[O-])c(=O)[nH]1` [Compound 36, (E)-6-(4-Hydroxy-3-nitrostyryl)-5-nitropyrimidine-2,4(1H,3H)-dione], for which, in assay [1], the Mode of inhibition result is recorded as “Mixed”; the “kcat (rate constant ES → E + P)” value stood at 0.00617 ± 0.00017 s⁻¹; the “Kis (inhibitor dissociation constant, ES + I ⇌ ESI)” value came to 461 ± 150 µM. In assay [2], the Mode of inhibition result was “Uncompetitive”; the “kcat (rate constant ES → E + P)” value came to 0.022 ± 0.00017 s⁻¹; the “Kis (inhibitor dissociation constant, ES + I ⇌ ESI)” value was 276 ± 16 µM.

In the case of `COc1ccc(/C=C/c2[nH]c(=O)[nH]c(=O)c2[N+](=O)[O-])c(OC)c1OC` [Compound 23, (E)-6-(2,3,4-Trimethoxystyryl)-5-nitropyrimidine-2,4(1H,3H)-dione], in assay [1], the Mode of inhibition result is listed as “Mixed”; the “kcat (rate constant ES → E + P)” value stood at 0.00567 ± 0.00017 s⁻¹; the “Kis (inhibitor dissociation constant, ES + I ⇌ ESI)” value came out at 97 ± 24 µM.

In the case of `COc1cccc(/C=C/c2[nH]c(=O)[nH]c(=O)c2[N+](=O)[O-])c1OC` [Compound 21, (E)-6-(2,3-Dimethoxystyryl)-5-nitropyrimidine-2,4(1H,3H)-dione], in assay [1], the Mode of inhibition entry is listed as “Mixed”; the “kcat (rate constant ES → E + P)” value came to 0.0055 ± 0.00017 s⁻¹; the “Kis (inhibitor dissociation constant, ES + I ⇌ ESI)” value turned out to be 22 ± 6 µM. Further, in assay [2], the Mode of inhibition result is on record as “Competitive” and the “kcat (rate constant ES → E + P)” value was 0.0368 ± 0.00033 s⁻¹.

As to `O=c1[nH]c(NCc2ccccc2O)c([N+](=O)[O-])c(=O)[nH]1` [Compound 46, 6-(2-Hydroxybenzylamino)-5-nitropyrimidine-2,4(1H,3H)-dione], in assay [1], the Mode of inhibition entry was “Uncompetitive”; the “kcat (rate constant ES → E + P)” value was determined as 0.0103 ± 0.00033 s⁻¹; the “Kis (inhibitor dissociation constant, ES + I ⇌ ESI)” value came to 904 ± 193 µM.

Turning to `O=c1[nH]c(/C=C/c2ccc(Br)cc2)c([N+](=O)[O-])c(=O)[nH]1` [Compound 30, (E)-5-Nitro-6-(4-bromostyryl)pyrimidine-2,4(1H,3H)-dione], in assay [1], the Mode of inhibition result was “Mixed”; the “kcat (rate constant ES → E + P)” value came out at 0.00567 ± 0.00017 s⁻¹; the “Kis (inhibitor dissociation constant, ES + I ⇌ ESI)” value was 234 ± 59 µM. Further, in assay [2], the Mode of inhibition entry is “Uncompetitive”; the “kcat (rate constant ES → E + P)” value came out at 0.0205 ± 0.00017 s⁻¹; the “Kis (inhibitor dissociation constant, ES + I ⇌ ESI)” value worked out at 604 ± 54 µM.

Consider `COc1ccc(/C=C/c2[nH]c(=O)[nH]c(=O)c2[N+](=O)[O-])cc1OC` [Compound 22, (E)-6-(3,4-Dimethoxystyryl)-5-nitropyrimidine-2,4(1H,3H)-dione], for which, in assay [1], the Mode of inhibition entry is recorded as “Mixed”; the “kcat (rate constant ES → E + P)” value came to 0.0055 ± 0.00017 s⁻¹; the “Kis (inhibitor dissociation constant, ES + I ⇌ ESI)” value is 32 ± 3 µM.

Consider `O=c1[nH]c(/C=C/c2ccc(Cl)cc2)c([N+](=O)[O-])c(=O)[nH]1` [Compound 31, (E)-6-(4-Chlorostyryl)-5-nitropyrimidine-2,4(1H,3H)-dione], for which, in assay [1], the Mode of inhibition entry is given as “Mixed”; the “kcat (rate constant ES → E + P)” value stood at 0.00617 ± 0.00017 s⁻¹; the “Kis (inhibitor dissociation constant, ES + I ⇌ ESI)” value is 188 ± 38 µM.

Consider `O=C1OC(Cc2[nH]c(=O)[nH]c(=O)c2[N+](=O)[O-])c2ccccc21` (stereo not drawn) [Compound 49, 5-Nitro-6-[(3-oxo-1,3-dihydroisobenzofuran-1-yl)methyl]pyrimidine-2,4-(1H,3H)-dione], for which, in assay [2], the Mode of inhibition result is recorded as “Uncompetitive”; the “kcat (rate constant ES → E + P)” value turned out to be 0.0187 ± 0.00033 s⁻¹; the “Kis (inhibitor dissociation constant, ES + I ⇌ ESI)” value turned out to be 154 ± 13 µM.

For the molecule `O=C(O)c1ccc(/C=C/c2[nH]c(=O)[nH]c(=O)c2[N+](=O)[O-])cc1` [Compound 27, (E)-4-(2-(5-Nitro-2,6-dioxo-1,2,3,6-tetrahydropyrimidine-4-yl)vinyl)benzoic Acid], in assay [1], the Mode of inhibition result is recorded as “Partial”; the “kcat (rate constant ES → E + P)” value is 0.00588 ± 6.7e-05 s⁻¹; the “Kis (inhibitor dissociation constant, ES + I ⇌ ESI)” value came out at 78 ± 38 µM. For the same molecule, in assay [2], the Mode of inhibition result is reported as “Mixed”; the “kcat (rate constant ES → E + P)” value was determined as 0.0232 ± 0.0005 s⁻¹; the “Kis (inhibitor dissociation constant, ES + I ⇌ ESI)” value was 187 ± 43 µM.

For `COc1cccc(/C=C/c2[nH]c(=O)[nH]c(=O)c2[N+](=O)[O-])c1F` [Compound 38, (E)-6-(2-Fluoro-3-methoxystyryl)-5-nitropyrimidine-2,4(1H,3H)-dione], in assay [1], the Mode of inhibition result was “Mixed”; the “kcat (rate constant ES → E + P)” value came out at 0.00583 ± 0.00017 s⁻¹; the “Kis (inhibitor dissociation constant, ES + I ⇌ ESI)” value stood at 89 ± 11 µM. In assay [2], the Mode of inhibition result is recorded as “Mixed”; the “kcat (rate constant ES → E + P)” value stood at 0.0165 ± 0.00017 s⁻¹; the “Kis (inhibitor dissociation constant, ES + I ⇌ ESI)” value was 390 ± 90 µM.

As for `O=c1[nH]c(/C=C/c2ccccc2[N+](=O)[O-])c([N+](=O)[O-])c(=O)[nH]1` [Compound 14, (E)-6-(2-Nitrostyryl)-5-nitropyrimidine-2,4(1H,3H)-dione], in assay [1], the Mode of inhibition result was “Partial”; the “kcat (rate constant ES → E + P)” value amounted to 0.00517 ± 0.00017 s⁻¹; the “Kis (inhibitor dissociation constant, ES + I ⇌ ESI)” value was found to be 49 ± 12 µM.

Turning to `COc1ccc(/C=C/c2[nH]c(=O)[nH]c(=O)c2[N+](=O)[O-])cc1O` [Compound 20, (E)-6-(3-Hydroxy-4-methoxystyryl)-5-nitropyrimidine-2,4(1H,3H)-dione], in assay [1], the Mode of inhibition entry is recorded as “Mixed”; the “kcat (rate constant ES → E + P)” value amounted to 0.00467 ± 0.00017 s⁻¹; the “Kis (inhibitor dissociation constant, ES + I ⇌ ESI)” value stood at 74 ± 12 µM. Also, in assay [2], the Mode of inhibition result is on record as “Uncompetitive”; the “kcat (rate constant ES → E + P)” value came out at 0.0235 ± 0.00033 s⁻¹; the “Kis (inhibitor dissociation constant, ES + I ⇌ ESI)” value amounted to 38 ± 2 µM.

For the molecule `O=c1[nH]c(/C=C/c2cccc([N+](=O)[O-])c2)c([N+](=O)[O-])c(=O)[nH]1` [Compound 25, (E)-5-Nitro-6-(3-nitrostyryl)pyrimidine-2,4(1H,3H)-dione], in assay [1], the Mode of inhibition entry was “Mixed”; the “kcat (rate constant ES → E + P)” value was found to be 0.0055 ± 0.00017 s⁻¹; the “Kis (inhibitor dissociation constant, ES + I ⇌ ESI)” value stood at 173 ± 50 µM. Further, in assay [2], the Mode of inhibition result was “Mixed”; the “kcat (rate constant ES → E + P)” value amounted to 0.019 ± 0.00033 s⁻¹; the “Kis (inhibitor dissociation constant, ES + I ⇌ ESI)” value worked out at 496 ± 219 µM.

On to `O=c1[nH]c(NCc2ccccc2)c([N+](=O)[O-])c(=O)[nH]1` [Compound 45, 6-(Benzylamino)-5-nitropyrimidine-2,4(1H,3H)-dione], for which, in assay [1], the Mode of inhibition entry is “Uncompetitive”; the “kcat (rate constant ES → E + P)” value was determined as 0.00933 ± 0.00017 s⁻¹; the “Kis (inhibitor dissociation constant, ES + I ⇌ ESI)” value came to 823 ± 128 µM.

For the molecule `O=c1[nH]c(/C=C/c2ccc([N+](=O)[O-])cc2)c([N+](=O)[O-])c(=O)[nH]1` [Compound 26, (E)-5-Nitro-6-(4-nitrostyryl)pyrimidine-2,4(1H,3H)-dione], in assay [1], the Mode of inhibition entry is “Mixed”; the “kcat (rate constant ES → E + P)” value came out at 0.0075 ± 0.00017 s⁻¹; the “Kis (inhibitor dissociation constant, ES + I ⇌ ESI)” value was 37 ± 17 µM. Besides, in assay [2], the Mode of inhibition result is given as “Partial”; the “kcat (rate constant ES → E + P)” value was 0.0217 ± 0.00033 s⁻¹; the “Kis (inhibitor dissociation constant, ES + I ⇌ ESI)” value came to 15 ± 5 µM.

In the case of `COc1ccc([N+](=O)[O-])cc1/C=C/c1[nH]c(=O)[nH]c(=O)c1[N+](=O)[O-]` [Compound 34, (E)-6-(2-Methoxy-5-nitrostyryl)-5-nitropyrimidine-2,4(1H,3H)-dione], in assay [1], the Mode of inhibition result is “Mixed”; the “kcat (rate constant ES → E + P)” value was determined as 0.00633 ± 0.00017 s⁻¹; the “Kis (inhibitor dissociation constant, ES + I ⇌ ESI)” value amounted to 225 ± 59 µM. For the same molecule, in assay [2], the Mode of inhibition result is on record as “Mixed”; the “kcat (rate constant ES → E + P)” value turned out to be 0.0182 ± 0.00033 s⁻¹; the “Kis (inhibitor dissociation constant, ES + I ⇌ ESI)” value is 682 ± 409 µM.

For `COc1cc(/C=C/c2[nH]c(=O)[nH]c(=O)c2[N+](=O)[O-])cc(OC)c1OC` [Compound 24, (E)-6-(3,4,5-Trimethoxystyryl)-5-nitropyrimidine-2,4(1H,3H)-dione], in assay [1], the Mode of inhibition entry is “Mixed”; the “kcat (rate constant ES → E + P)” value came to 0.0045 ± 0.00017 s⁻¹; the “Kis (inhibitor dissociation constant, ES + I ⇌ ESI)” value was 37 ± 5 µM. Besides, in assay [2], the Mode of inhibition result is recorded as “Uncompetitive”; the “kcat (rate constant ES → E + P)” value came to 0.0233 ± 0.0005 s⁻¹; the “Kis (inhibitor dissociation constant, ES + I ⇌ ESI)” value turned out to be 47 ± 4 µM.

For the molecule `O=c1[nH]c(C=Cc2ccccc2)c([N+](=O)[O-])c(=O)[nH]1` [Compound 39, 5-Nitro-6-styryluracil], in assay [1], the Mode of inhibition entry is “Partial” and the “Kis (inhibitor dissociation constant, ES + I ⇌ ESI)” value was 15 ± 4 µM. Moreover, in assay [2], the Mode of inhibition entry was “Competitive” and the “kcat (rate constant ES → E + P)” value amounted to 0.0367 ± 0.0017 s⁻¹.

As for `O=c1[nH]c(/C=C/c2cccnc2)c([N+](=O)[O-])c(=O)[nH]1` [Compound 42, (E)-5-Nitro-6-(3-(pyridine-3-yl)vinyl)pyrimidine-2,4(1H,3H)-dione], in assay [1], the Mode of inhibition result is on record as “Partial”; the “kcat (rate constant ES → E + P)” value was 0.007 ± 0.00017 s⁻¹; the “Kis (inhibitor dissociation constant, ES + I ⇌ ESI)” value is 24 ± 10 µM.

Source of the values: publication PMC2760403 (The Journal of organic chemistry, 2009).
